Source: US8309097B2, “C-type lectin binding molecules, identification and uses thereof” (Vereniging voor Christelijk Wetenschappelijk Onderwijs, priority 2002, dated 2012)
“Also recorded” adds a separate entry of the source. Read-outs that look alike come from different tables or passages of the source.

Assays:
[1] = molecular target: T1, DC-SIGN expressed by K562 transfectants (Homo sapiens, UniProt Q9NNX6); type: cell-based
T1 construct: expressed in transfected cells; host or cells: K562
T1 sequence (Q9NNX6 1-404): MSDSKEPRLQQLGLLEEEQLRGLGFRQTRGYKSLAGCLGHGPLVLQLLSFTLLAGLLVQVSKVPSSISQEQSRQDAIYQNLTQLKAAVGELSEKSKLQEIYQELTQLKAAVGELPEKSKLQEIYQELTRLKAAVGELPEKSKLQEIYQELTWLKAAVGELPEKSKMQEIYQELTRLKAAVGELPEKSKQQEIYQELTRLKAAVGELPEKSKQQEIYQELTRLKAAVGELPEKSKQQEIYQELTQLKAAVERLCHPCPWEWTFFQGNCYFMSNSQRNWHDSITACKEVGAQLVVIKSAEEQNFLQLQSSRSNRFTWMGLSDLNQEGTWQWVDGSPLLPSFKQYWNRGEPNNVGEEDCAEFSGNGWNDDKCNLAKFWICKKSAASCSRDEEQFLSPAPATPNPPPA

[2] = molecular target: T2, DC-SIGN-Fc (Homo sapiens, UniProt Q9NNX6); experiment: Soluble DC-SIGN-Fc adhesion assay (Fc ELISA)
T2 sequence (Q9NNX6 64-404): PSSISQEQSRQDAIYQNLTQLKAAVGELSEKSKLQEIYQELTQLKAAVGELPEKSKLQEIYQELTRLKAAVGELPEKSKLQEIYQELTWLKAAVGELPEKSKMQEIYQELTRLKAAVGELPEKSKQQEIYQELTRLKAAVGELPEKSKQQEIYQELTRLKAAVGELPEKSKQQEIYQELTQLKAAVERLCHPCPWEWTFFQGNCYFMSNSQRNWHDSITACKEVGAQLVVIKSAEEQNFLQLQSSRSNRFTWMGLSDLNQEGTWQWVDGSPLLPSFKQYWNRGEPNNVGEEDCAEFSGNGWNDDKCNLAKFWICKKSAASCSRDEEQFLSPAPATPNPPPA

[3] = molecular target: T3, DC-SIGN on immature monocyte derived DC (Homo sapiens, UniProt Q9NNX6); experiment: Fluorescent bead adhesion assay, immature DC; type: cell-based
T3 construct: Immature DC were cultured from monocytes in the presence of IL-4 and GM-CSF; endogenous in cells; host or cells: immature monocyte-derived dendritic cells
T3 sequence (Q9NNX6 1-404): T1 sequence (Q9NNX6 1-404)

[4] = molecular target: T2, DC-SIGN-Fc; experiment: Immunoprecipitation and detection with DC-SIGN-Fc; type: binding; conditions: immunoprecipitation
From the text: FIG. 59. […] Cell-surface proteins are biotinylated and PMNs are lysed. Lane 1. negative control using ICAM-3 Fc to capture by IP proteins. Detection is peroxidase-labeled streptavidin. Lane 2. DC-SIGN-Fc is used to capture ligands biotinylated ligands from lysate; two protein bands are visible, the upper band consists of CD11b and CD66a, whereas the lower consists of CD18. Lane 3. Negative control; no bands are immune precipitated with anti-DC-SIGN antibodies. Lane 4, IP with antibodies against CD66acd; a faint band is visible containing CD66a. Lane 5, IP of CD11b; two bands are visible; the upper band is […] and the lower band is CD18m, which is co-immuneprecipitated with […]. Lane 6. IP with DC-SIGN ligands and detection with anti-CD66acd; CD66a is captured by DC-SIGN Fc. Lane 7. IP with DC-SIGN ligands and detection with anti-CD11b; CD11b is captured by DC-SIGN Fc. Lane 8. Negative control, IP with anti-DC-SIGN antibodies and detection with DC-SIGN-Fc. Lane 9. IP with anti-CD66acd and detection with DC-SIGN Fc; CD66a is bound by DC-SIGN on blot. Lane 10. IP with anti-CD11a and detection with DC-SIGN Fc; CD11a is bound by DC-SIGN on blot.
Immunoprecipitation. […]

[5] = tested on: granulocytes; experiment: DC-SIGN-Fc adhesion to granulocytes
[6] = molecular target: mSIGNR1 (Mus musculus, UniProt Q8CJ91); type: cell-based, murine
[7] = tested on: immature DC; type: cell-based, human
[8] = molecular target: L-SIGN expressed by K562 transfectants (Homo sapiens, UniProt Q9H2X3); type: cell-based
[9] = tested on: K562 transfectants expressing DC-SIGN; type: cell-based, human

Chain of mSIGNR1 (Q8CJ91 whole entry): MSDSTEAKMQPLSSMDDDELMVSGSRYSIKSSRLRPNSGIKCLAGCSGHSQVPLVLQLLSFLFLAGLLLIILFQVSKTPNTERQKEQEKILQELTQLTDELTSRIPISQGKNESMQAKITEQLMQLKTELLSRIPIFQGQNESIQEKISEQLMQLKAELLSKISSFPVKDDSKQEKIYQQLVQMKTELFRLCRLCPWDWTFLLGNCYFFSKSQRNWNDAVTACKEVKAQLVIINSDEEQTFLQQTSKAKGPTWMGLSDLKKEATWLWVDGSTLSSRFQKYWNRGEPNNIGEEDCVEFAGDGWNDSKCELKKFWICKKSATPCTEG
Chain of L-SIGN expressed by K562 transfectants (Q9H2X3 whole entry, looked up): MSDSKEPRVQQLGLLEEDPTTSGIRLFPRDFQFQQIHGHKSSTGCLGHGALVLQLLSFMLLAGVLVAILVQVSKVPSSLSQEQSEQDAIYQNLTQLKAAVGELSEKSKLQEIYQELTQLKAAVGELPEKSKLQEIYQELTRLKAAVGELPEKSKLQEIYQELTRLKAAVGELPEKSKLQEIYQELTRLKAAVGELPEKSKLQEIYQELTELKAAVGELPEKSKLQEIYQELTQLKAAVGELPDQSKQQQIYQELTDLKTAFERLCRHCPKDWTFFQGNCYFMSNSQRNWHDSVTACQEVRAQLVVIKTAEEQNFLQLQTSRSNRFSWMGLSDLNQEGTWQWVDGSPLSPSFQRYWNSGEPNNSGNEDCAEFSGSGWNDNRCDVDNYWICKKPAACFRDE

α1->3, α1->6 mannotriose
binding of ligand-coated beads to K562 DC-SIGN transfectants [1]: bound similarly to the glycoconjugates as DC-SIGN-Fc
binding of DC-SIGN-Fc to coated ligand [2]: binds; also recorded: high affinity
binding of ligand-coated beads to immature DC [3]: preferentially bound by DC-SIGN

CD11b: Lewis X-expressing CD11b captured from PMN lysate
binding of ligand-coated beads to K562 DC-SIGN transfectants [1]: interacted strongly
binding of DC-SIGN-Fc to coated ligand ([2]; ELISA, ligand coated): high affinity binding
binding of DC-SIGN-Fc after α-1,3,4 Fucosidase treatment of the ligand [4]: abrogated

[…]-L-fucose
binding of DC-SIGN-Fc to coated ligand [2]: lower binding affinity

O=C(O)CN(CCOCCOCCN(CC(=O)O)CC(=O)O)CC(=O)O [EGTA]
inhibition of DC-SIGN-Fc binding to granulocytes [5]: blocked
inhibition of DC-SIGN-Fc binding to SEA ([2]; coated SEA): completely inhibited
inhibition of DC-SIGN-Fc binding to M. tuberculosis and M. bovis BCG ([2]; coated whole mycobacteria): inhibited
inhibition of ManLAM binding by immature DC [3]: block

sialyl Lewis A
binding of ligand-coated beads to K562 mSIGNR1 transfectants [6]: bind
binding of ligand-coated beads to K562 DC-SIGN transfectants [1]: bind

mannan
binding of ligand-coated beads to K562 mSIGNR1 transfectants [6]: bind
inhibition of gp120 binding to mSIGNR1 [6]: inhibited
binding of ligand-coated beads to K562 DC-SIGN transfectants [1]: bind
inhibition of gp120 binding to DC-SIGN [1]: inhibited
inhibition of DC-SIGN-Fc binding to granulocytes [5]: blocked
inhibition of M. bovis BCG binding/infection of immature DC [7]: blocked the infection to a similar level as the DC-SIGN antibodies
inhibition of Neisseria IgtB binding to DC [7]: partly inhibit
binding of ligand-coated beads to K562 L-SIGN transfectants [8]: bind
inhibition of gp120 binding to L-SIGN [8]: inhibited
binding of DC-SIGN-Fc to coated ligand [2]: binds
inhibition of DC-SIGN-Fc binding to M. tuberculosis and M. bovis BCG [2]: inhibited
inhibition of ManLAM binding by immature DC [3]: block
inhibition of SEA binding to DC [3]: strongly blocked
inhibition of internalization of M. bovis BCG by K562 DC-SIGN transfectants [9]: blocked

sialyl-Le^x
binding of ligand-coated beads to K562 mSIGNR1 transfectants [6]: interacts
binding of DC-SIGN-Fc to coated ligand [2]: completely abrogates the recognition; also recorded: lower binding affinity
